“Also recorded” adds a separate entry of the source.
Columns and labels:
[1] = test system: ICAM-1 expression in HMEC-1 cells; assay: LPS-induced ICAM-1 expression in HMEC-1 cells, flow cytometry; format: cell-based, human
Experimental: (3) Screening candidate molecules with the strongest ICAM-1 inhibitory activity by simulating the physiological model of inflammation that human microvascular endothelial cells (HMEC-1) expressing cell adhesion molecules (ICAM-1) mediate lymphocytes to penetrate blood vessels to infiltrate the damaged tissues. The specific steps are as follows:
1) Culture of HMEC-1 cells: HMEC-1 cells are cultured in MCDB131 medium (U.S. Sigma) that contain 10% fetal bovine serum (FBS, Zhejiang Tianhang Biotechnology Co., Ltd.), double antibody (100 U/mL penicillin and 100 μg/mL streptomycin), 1 μg/mL hydrocortisone (Sangon Biotech (Shanghai) Co., Ltd.) and 10 ng/mL human recombinant growth factor (hEGF, Sangon Biotech (Shanghai) Co., Ltd.) at 37° C., 5% CO2, and 100% RH.
2) HMEC-1 cells are inoculated into a 24-well plate, and cultured in a cell incubator at 37° C., 5% CO2, and 100% RH. When the cells grow to 80% abundance, different concentrations of drugs are added for 3 h (1 μM Celastrol as a positive control drug). At the end of treatment, 1 μg/mL LPS is added to activate the NF-κB signaling pathway for 12 hours. After activation, the supernatant medium is discarded, and washed three times with PBS, and 100 μL of 0.25% pancreatin (containing 0.5 mM EDTA) is added to digest in a 37° C. incubator for 3 min. When most of cells are shed, 150 μL of MCDB131 complete medium is added to terminate the digestion, shaken for 3 min, then cells are transferred to a V-shaped 96-well plate (Corning), centrifuged at 4° C., 3000 rpm for 3 min to precipitate cells. Then the supernatant medium is discarded, 100 μL of pH=7.4 buffer A (PBS+0.5% BSA+1 mM MgCl2) is added to each well, to wash once, centrifuged at 4° C., 3000 rpm for 3 min, and the buffer A is aspirated. To each well, 100 μL of PBS solution containing 5% bovine serum albumin is added, and shaken and blocked at 120 rpm for 30 min at room temperature; after blocking, centrifuged at 4° C. and 2000 rpm for 3 min, and the supernatant is discarded, 20 μl of buffer A containing 5 μg/mL of primary antibody anti-ICAM-1 antibody LB-2, shaken and incubated at room temperature at 120 rpm for 1 h, using the buffer A without adding anti-ICAM-1 antibody LB-2 as the negative control. By detecting anti-ICAM-1 fluorescence value by flow cytometry, the expression of ICAM-1 protein in HMEC-1 cells is detected indirectly. Three duplicate wells are established for each concentration. PBS is set as a blank control, 1 uM of Celastrol is set as a positive control, to analyze the inhibitory effect of different concentrations of drugs on the expression level of ICAM-1.
1) Culture of HMEC-1 cells: HMEC-1 cells are cultured in MCDB131 medium (U.S. Sigma) that contain 10% fetal bovine serum (FBS, Zhejiang Tianhang Biotechnology Co., Ltd.), double antibody (100 U/ml penicillin and 100 μg/ml streptomycin), 1 μg/ml hydrocortisone (Sangon Biotech) and 10 ng/ml human recombinant growth factor (hEGF, Sangon Biotech) at 37° C., 5% CO2, and 100% RH.
HMEC-1 cells are inoculated into a 24-well plate, and cultured in a cell incubator at 37° C., 5% CO2, and 100% RH. When the cells grow to 80% abundance, different concentrations of drugs are added for 3 h (1 μM Celastrol as a positive control drug). At the end of treatment, 1 μg/mL LPS is added to activate the NF-κB signaling pathway for 12 hours. After activation, the supernatant medium is discarded, and washed three times with PBS, and 100 μL of 0.25% pancreatin (containing 0.5 mM EDTA) is added to digest in a 37° C. incubator for 3 min. When most of cells are shed, 150 μL of MCDB131 complete medium is added to terminate the digestion, shaken for 3 min, then cells are transferred to a V-shaped 96-well plate (Corning), centrifuged at 4° C., 3000 rpm for 3 min to precipitate cells. Then the supernatant medium is discarded, 100 μL of pH=7.4 buffer A (PBS+0.5% BSA+1 mM MgCl2) is added to each well, to wash once, centrifuged at 4° C., 3000 rpm for 3 min, and the buffer A is aspirated. […]

[2] = test system: high-fat-induced obese mice; assay: GA-02 in high-fat-induced obese mouse model, intraperitoneal; format: in vivo, C57BL/6 mice
Experimental: Animals are fed with 60% calorie high-fat diets (purchased from Bio-medicine) for 14 consecutive weeks. […] When the blood glucose is greater than 11 mmol/L and the body weight is greater than 42 g, the administration is started. […] The injection volume is 25 μL per day. In addition, a vehicle (25 μL DMSO) and positive drug (Celastrol) control are established. […] Mice in the blank group and GA-02 treatment group underwent pathological anatomy, to observe the changes in organs before and after administration. Samples are taken to prepare pathological sections.
The models are constructed by feeding high-fat diets to C57BL/6 male mice for 14 weeks. Mice with body weight greater than 42 g and blood glucose higher than 11 mmol/L are obese model mice. Mice are grouped by blood glucose and body weight. Model mice in each group are given three doses of GA-02 (high-, medium-and low-doses, 4, 12, 20 mg/kg, 25 μL/day) by intraperitoneal injection for 14 consecutive days. Mice in the blank control group are given DMSO (25 μL/day) by intraperitoneal injection, and the food intakes and body weights are recorded every day.

mildly obese mice = assay: GA-02 in mildly obese mouse model, intraperitoneal; format: in vivo, C57BL/6 mice
Experimental: The animal feeding and experiment method are as follows. […] The food intake and body weights of mice in each group are measured every day.

[3] = high-dose (20 mg/kg) i.p., second day
[4] = high-dose (20 mg/kg) i.p., third day
[5] = low-, medium- and high-dose (4, 12, 20 mg/kg) i.p.
[6] = low-, medium- and high-dose (4, 12, 20 mg/kg) i.p., 14 days

CC1(C(=O)O)CCC2(C)CCC3(C)C(=CC(=O)C4C5(C)C=C(O)C(=O)C(C)(C)C5CCC43C)C2C1 (stereo not drawn) [GA-02, 3,11-dicarbonyl-1,12-diene-2-hydroxy-oleanane-30 carboxylic acid]
anti-inflammatory activity compared with reference compounds [1]: effectively improved compared with 18β-glycyrrhetinic acid | anti-inflammatory activity, times lower than that of Celastrol [1]: 10 times | ICAM-1 inhibitory activity compared with Celastrol ([1]; 10 μM): equivalent to 1 μM Celastrol | ICAM-1 inhibitory activity, concentration dependence ([1]; different concentrations): concentration-dependent ICAM-1 inhibitory activity | accumulated fats in the visceral tissues ([2]; after administration for two weeks, dissection): completely dissipated | average daily food intake decreased compared to the vehicle control group ([2]; first week, high dose 20 mg/kg i.p.): 63.2% | average daily food intake ([2]; first week, high dose 20 mg/kg i.p., vehicle 2.31±0.18 g): 0.85 ± 0.23 g | average daily food intake decreased compared to the vehicle control group ([2]; first week, low dose 4 mg/kg i.p.): 20.8% | average daily food intake ([2]; first week, low dose 4 mg/kg i.p., vehicle 2.31±0.18 g): 1.83 ± 0.28 g | average daily food intake decreased compared to the vehicle control group ([2]; first week, medium dose 12 mg/kg i.p.): 27.3% | average daily food intake ([2]; first week, medium dose 12 mg/kg i.p., vehicle 2.31±0.18 g): 1.68 ± 0.35 g | body weight reduced by ([2]; high dose 20 mg/kg i.p., 14 days): 26.42±0.73% | body weight two weeks after administration ([2]; high dose 20 mg/kg i.p., 14 days, from 42.14±1.37 g): 30.07 ± 1.23 g | lipid droplets in the liver (oil red O and H&E staining) ([2]; high-dose (20 mg/kg) i.p.): completely disappeared | liver function indexes AST and ALT vs vehicle control group ([2]; high-dose (20 mg/kg) i.p.): significantly lower | average daily food intake ([2]; high-dose (20 mg/kg) i.p., first day of administration, day 0: 2.0±0.18 g): 0.60 ± 0.02 g | body weight ([2]; high-dose (20 mg/kg) i.p., first day, from 42.09±0.42 g): 40.98 ± 0.57 g | average daily food intake [2, 3]: 0.47 ± 0.16 g | body weight [2, 3]: 39.94 ± 0.62 g | average daily food intake [2, 4]: 0.39 ± 0.11 g | body weight [2, 4]: 39.23 ± 0.71 g | blood glucose tolerance (GTT) and insulin tolerance (ITT) ([2]; high-dose administration group): significantly improved | effect on suppressing appetite and reducing body weight (summary) ([2]; intraperitoneal injection, obese mice): strong effect | body weight reduced by ([2]; low dose 4 mg/kg i.p., 14 days): 9.88±2.37% | body weight two weeks after administration ([2]; low dose 4 mg/kg i.p., 14 days, from 42.50±1.71 g): 38.46 ± 0.95 g | fat contents vs obese model mice (NMR body fat quantitative analysis) [2, 5]: significantly lower | lean body masses (NMR body fat quantitative analysis) [2, 5]: no significant change | fasting blood glucose level [2, 6]: reduce to a normal level; also recorded: return to the normal levels | weights of liver and epididymal fat compared to the vehicle control group [2, 6]: decrease in a dose-dependent manner | body weight reduced by ([2]; medium dose 12 mg/kg i.p., 14 days): 13.15±2.73% | body weight two weeks after administration ([2]; medium dose 12 mg/kg i.p., 14 days, from 41.41.±1.17 g): 35.45 ± 1.15 g | average daily food intake decreased compared to the vehicle control group ([2]; second mention of 'first week', high dose 20 mg/kg i.p.): 68.8% | average daily food intake ([2]; second mention of 'first week', high dose 20 mg/kg i.p., vehicle 2.47±0.13 g): 0.70 ± 0.16 g | average daily food intake decreased compared to the vehicle control group ([2]; second mention of 'first week', low dose 4 mg/kg i.p.): 37.2% | average daily food intake ([2]; second mention of 'first week', low dose 4 mg/kg i.p., vehicle 2.47±0.13 g): 1.55 ± 0.12 g | average daily food intake decreased compared to the vehicle control group ([2]; second mention of 'first week', medium dose 12 mg/kg i.p.): 45.3% | average daily food intake ([2]; second mention of 'first week', medium dose 12 mg/kg i.p., vehicle 2.47±0.13 g): 1.35 ± 0.18 g | food intake and body weight vs vehicle control group (mildly obese mice; high-dose i.p., mild obesity group, body weight of about 28 g): significantly lower | effect on suppressing appetite and reducing body weight (summary) (mildly obese mice; intraperitoneal injection, mildly obese mice): significant effect

— US20220112149A1, “DRUG DESIGN METHOD ASSOCIATED WITH NATURAL PRODUCTS, PENTACYCLIC TRITERPENOID COMPOUND, PREPARATION METHOD AND APPLICATIONS THEREOF” (Huazhong Agricultural University, priority 2020, published 2022)
